Patent publication US7759345B2, “Antitumoral derivatives of ET-743” (priority 2001, dated 2010)

How the values were obtained:
A-549 = assay: Inhibition of cells growth by colorimetric assay (SRB), A-549; assay type: cell-based; details: for GI50 / LC50 (concentration for 50% cell killing): Homo sapiens, A549, 48 h; for GI50 / A-549 TGI: SRB assay, 48 hours exposure; for GI50: read-out: A-549 GI50; for LC50 (concentration for 50% cell killing): read-out: A-549 LC50, SRB assay, 48 hours exposure
Summary of the method: (§1)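 Human cancer and endothelial lines are seeded at 5×10^3 cells per well and, after 18 h, treated for 48 h with compound dissolved in DMSO/EtOH/PBS (0.5:0.5:99) at 10 to 10^−8 μg/ml. Cell mass is quantified by SRB staining (OD 490 nm), and growth inhibition, total growth inhibition and cell kill are calculated from triplicate wells.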

SK-MEL-28 = assay: Inhibition of cells growth by colorimetric assay (SRB), SK-MEL-28; assay type: cell-based; details: for GI50: read-out: MEL-28 GI50
Summary of the method: as §1

HT-29 = assay: Inhibition of cells growth by colorimetric assay (SRB), HT-29; assay type: cell-based; details: for GI50 / LC50 (concentration for 50% cell killing): Homo sapiens, HT-29, 48 h; for GI50 / HT-29 TGI: SRB assay, 48 hours exposure; for GI50: read-out: HT-29 GI50; for LC50 (concentration for 50% cell killing): read-out: HT-29 LC50, SRB assay, 48 hours exposure
Summary of the method: as §1

K-562 = assay: Inhibition of cells growth by colorimetric assay (SRB), K-562; assay type: cell-based
Summary of the method: as §1

LoVo = assay: Inhibition of cells growth by colorimetric assay (SRB), LoVo; assay type: cell-based
Summary of the method: as §1

LoVo-Dox = assay: Inhibition of cells growth by colorimetric assay (SRB), LoVo-Dox; assay type: cell-based
Summary of the method: as §1

DU-145 = assay: Inhibition of cells growth by colorimetric assay (SRB), DU-145; assay type: cell-based
Summary of the method: as §1

LNCaP = assay: Inhibition of cells growth by colorimetric assay (SRB), LNCaP; assay type: cell-based
Description: (§2) 2°.—Inhibition of Cells Growth by Colorimetric Assay.
(§3) A colorimetric type of assay, using sulforhodamine B (SRB) reaction has been adapted for a quantitative measurement of cell growth and viability [following the technique described by Philip Skehan, et al. (1990), New colorimetric cytotoxicity assay for anticancer drug screening, J. Natl. Cancer Inst., 82:1107-1112]
(§4) This form of the assay employs 96 well cell culture microplates of 9 mm diameter (Faircloth, 1988; Mosmann, 1983). Most of the cell lines are obtained from American Type Culture Collection (ATCC) derived from different human cancer types.
(§5) Cells are maintained in RPMI 1640 10% FBS, supplemented with 0.1 g/l penicillin and 0.1 g/l streptomycin sulfate and then incubated at 37° C., 5% CO2 and 98% humidity. For the experiments, cells were harvested from subconfluent cultures using trypsin and resuspended in fresh medium before plating.
(§6) Cells are seeded in 96 well microtiter plates, at 5×10^3 cells per well in aliquots of 195 μl medium, and they are allowed to attach to the plate surface by growing in drug free medium for 18 hours. Afterward, samples are added in aliquots of 5 μl in a ranging from 10 to 10^−8 μg/ml, dissolved in DMSO/EtOH/PBS (0.5:0.5:99). After 48 hours exposure, the antitumor effect are measured by the SRB methodology: cells are fixed by adding 50 μl of cold 50% (wt/vol) trichloroacetic acid (TCA) and incubating for 60 minutes at 4° C. Plates are washed with deionized water and dried. One hundred μl of SRB solution (0.4% wt/vol in 1% acetic acid) is added to each microtiter well and incubated for 10 minutes at room temperature. Unbound SRB is removed by washing with 1% acetic acid. Plates are air dried and bound stain is solubilized with Tris buffer. Optical densities are read on a automated spectrophotometric plate reader at a single wavelength of 490 nm.
(§7) The values for mean+/−SD of data from triplicate wells are calculated. Some parameters for cellular responses can be calculated: GI=growth inhibition, TGI=total growth inhibition (cytostatic effect) and LC=cell killing (cytotoxic effect).
(§8) Obtained results may predict the usefulness of a certain drug as a potential cancer treatment. For this technique, compounds which show GI50 values smaller than 10 μg/ml are selected to continue with further studies. GI50's data allow to predict that not only could a drug be cystostatic, but also it could have a potential in terms of tumor reduction.

SK-BR-3 = assay: Inhibition of cells growth by colorimetric assay (SRB), SK-BR-3; assay type: cell-based
Description: as §2, §3, §4, §5, §6, §7, §8

IGROV-1 = assay: Inhibition of cells growth by colorimetric assay (SRB), IGROV-1; assay type: cell-based
Summary of the method: as §1

IGROV-ET = assay: Inhibition of cells growth by colorimetric assay (SRB), IGROV-ET; assay type: cell-based
Summary of the method: as §1

SK-OV-3 = assay: Inhibition of cells growth by colorimetric assay (SRB), SK-OV-3; assay type: cell-based
Summary of the method: as §1

PANC-1 = assay: Inhibition of cells growth by colorimetric assay (SRB), PANC-1; assay type: cell-based
Summary of the method: as §1

HMEC1 = assay: Inhibition of cells growth by colorimetric assay (SRB), HMEC1; assay type: cell-based
Description: as §2, §3, §4, §5, §6, §7, §8

[1] = Homo sapiens, SK-MEL-28, 48 h, SRB assay, 48 hours exposure

Description for Kidney: (§9) Toxicity was asssessed by the methods reported in Toxicology in Vitro, 15 (2001) 571-577, J. Luber Narod et al.: “Evaluation of the use of in vitro methodolodies as tools for screening new compounds for potential in vivo toxicity”.
Description for Liver: as §9
Description for Skeletal: as §9

COc1cc2c(cc1O)CCN(C)[C@]21CS[C@@H]2c3c(OC(C)=O)c(C)c4c(c3[C@H](COC1=O)N1C2[C@@H]2N[C@@H](Cc3cc(C)c(OC)c(O)c32)[C@@H]1O)OCO4 (stereo partly shown) [Compound 217]
GI50 (A-549): 2.1 nM | LC50 (concentration for 50% cell killing) (A-549): 45.7 nM | A-549 TGI (A-549): 6.16E-09 | GI50 (SK-MEL-28; [1]): 0.537 nM | GI50 (HT-29): 13.1 nM | LC50 (concentration for 50% cell killing) (HT-29): 13100 nM | HT-29 TGI (HT-29): 1.31E-05 | Toxicity Data Liver (Liver): 1.07E-09 | Toxicity Data Skeletal (Skeletal): 3.37E-12 | Toxicity Data Kidney (Kidney): 2.66E-13

COc1cc2c(cc1O)CCN[C@]21CS[C@@H]2c3c(O)c(C)c4c(c3[C@H](COC1=O)N1C2[C@H]2c3c(cc(C)c(OC)c3O)C[C@@H]([C@@H]1O)N2C)OCO4 (stereo partly shown) [Et-701]
GI50 (K-562; Homo sapiens, K562, 48 h, SRB assay, 48 hours exposure, read-out: K-562 GI50): 1.33 nM | LC50 (50% cell killing) (K-562; Homo sapiens, K562, 48 h, read-out: K-562 LC50, SRB assay, 48 hours exposure): 11.3 nM | K-562 TGI (K-562; SRB assay, 48 hours exposure): 3.50E-09 | GI50 (A-549): 2.99 nM | LC50 (concentration for 50% cell killing) (A-549): 13.9 nM | A-549 TGI (A-549): 7.06E-09 | GI50 (SK-MEL-28; [1]): 9.74 nM | CC50 (SK-MEL-28; Homo sapiens, SK-MEL-28, 48 h, read-out: MEL-28 LC50, SRB assay, 48 hours exposure): 122 nM | MEL-28 TGI (SK-MEL-28; SRB assay, 48 hours exposure): 3.50E-08 | GI50 (HT-29): 4.24 nM | LC50 (concentration for 50% cell killing) (HT-29): 9560 nM | HT-29 TGI (HT-29): 3.72E-08 | GI50 (LoVo; Homo sapiens, LoVo, 48 h, SRB assay, 48 hours exposure, read-out: LOVO GI50): 4.56 nM | LC50 (concentration for 50% cell killing) (LoVo; Homo sapiens, LoVo, 48 h, read-out: LOVO LC50, SRB assay, 48 hours exposure): 3750 nM | LOVO TGI (LoVo; SRB assay, 48 hours exposure): 1.18E-08 | GI50 (LoVo-Dox; Homo sapiens, 48 h, SRB assay, 48 hours exposure, read-out: LOVO-DOX GI50): 50.6 nM | CC50 (LoVo-Dox; Homo sapiens, 48 h, read-out: LOVO-DOX LC50, SRB assay, 48 hours exposure): 13900 nM | LOVO-DOX TGI (LoVo-Dox; SRB assay, 48 hours exposure): 5.46E-07 | GI50 (DU-145; Homo sapiens, DU-145, 48 h, SRB assay, 48 hours exposure, read-out: DU-145 GI50): 4.04 nM | CC50 (DU-145; Homo sapiens, DU-145, 48 h, read-out: DU-145 LC50, SRB assay, 48 hours exposure): 2970 nM | DU-145 TGI (DU-145; SRB assay, 48 hours exposure): 9.70E-09 | GI50 (LNCaP; Homo sapiens, LNCaP, 48 h, read-out: LNCAP GI50, SRB assay, 48 hours exposure): 0.324 nM | CC50 (LNCaP; Homo sapiens, LNCaP, 48 h, read-out: LNCAP LC50, SRB assay, 48 hours exposure): 5.28 nM | LNCAP TGI (LNCaP; SRB assay, 48 hours exposure): 1.56E-09 | GI50 (SK-BR-3; Homo sapiens, SK-BR-3, 48 h, SRB assay, 48 hours exposure, read-out: SK-BR3 GI50): 2.21 nM | CC50 (SK-BR-3; Homo sapiens, SK-BR-3, 48 h, read-out: SK-BR3 LC50, SRB assay, 48 hours exposure): 27.5 nM | SK-BR3 TGI (SK-BR-3; SRB assay, 48 hours exposure): 6.25E-09 | GI50 (IGROV-1; Homo sapiens, IGROV-1, 48 h, SRB assay, 48 hours exposure, read-out: IGROV GI50): 2.33 nM | CC50 (IGROV-1; Homo sapiens, IGROV-1, 48 h, read-out: IGROV LC50, SRB assay, 48 hours exposure): 11.1 nM | IGROV TGI (IGROV-1; SRB assay, 48 hours exposure): 5.08E-09 | GI50 (IGROV-ET; Homo sapiens, 48 h, SRB assay, 48 hours exposure, read-out: IGROV-ET GI50): 16.4 nM | CC50 (IGROV-ET; Homo sapiens, 48 h, read-out: IGROV-ET LC50, SRB assay, 48 hours exposure): 3750 nM | IGROV-ET TGI (IGROV-ET; SRB assay, 48 hours exposure): 7.78E-08 | GI50 (SK-OV-3; Homo sapiens, SK-OV-3, 48 h, SRB assay, 48 hours exposure, read-out: SK-OV3 GI50): 2.1 nM | LC50 (SK-OV-3; Homo sapiens, SK-OV-3, 48 h, read-out: SK-OV3 LC50, SRB assay, 48 hours exposure): 9850 nM | SK-OV3 TGI (SK-OV-3; SRB assay, 48 hours exposure): 1.08E-08 | GI50 (PANC-1; Homo sapiens, PANC-1, 48 h, SRB assay, 48 hours exposure, read-out: PANC-1 GI50): 4.61 nM | LC50 (concentration for 50% net cell kill) (PANC-1; Homo sapiens, PANC-1, 48 h, read-out: PANC-1 LC50, SRB assay, 48 hours exposure): 206 nM | PANC-1 TGI (PANC-1; SRB assay, 48 hours exposure): 1.19E-08 | GI50 (HMEC1; Homo sapiens, HMEC-1, 48 h, SRB assay, 48 hours exposure, read-out: HMEC-1 GI50): 3.99 nM | LC50 (HMEC1; Homo sapiens, HMEC-1, 48 h, read-out: HMEC-1 LC50, SRB assay, 48 hours exposure): 4570 nM | HMEC-1 TGI (HMEC1; SRB assay, 48 hours exposure): 1.35E-08
